Like-named read-outs stand apart in the source and are kept apart here.
Tests used:
RSV-A2-GFP = RSV-A2-GFP viral replication assay; type: cell-based, Human Respiratory Syncytial Virus
Description: GFP sequence was derived from pJTI™ R4 Dest CMV N-EmGFP pA Vector (Invitrogen) and was cloned into the intergenic sequence between wild-type RSV-A2 P and M genes using standard recombineering techniques. Recombinant RSV-A2-GFP was propagated in Hep2 cells (human cells contains HeLa marker chromosomes and were derived via HeLa contamination, ATCC CCL-23) with infection Multiplicity of Infection (MOI) of 0.1. Virus was harvested 3 days after infection by collecting all culture material and freeze-thaw the viral culture in liquid nitrogen for at least 5 times. To generating virus working stocks, thaw frozen samples in 37° C. water bath then centrifuge at 218 g for 15 min at 4° C. Add 1/10 of 10×SPG (Biological Industries 06-3061-01-5A), mix, aliquot supernatant, and quick-freeze in liquid nitrogen then transfer to −80° C. freezer for storage. Virus titer was determined by automated plaque assay in HEp-2 cells following methods described previously (Wen Z. et al.; J Virol Methods. 2019 January; 263:88-95).
Calu-1 cells (human lung epidermoid carcinoma, ATCC HTB-54) assay ready freezedown (ARF generation described separately) were used in assays. Compound plates were prepared by dispensing compounds dissolved in DMSO into wells of 384 well coming 3985 polystyrene flat clear bottom optical imaging microplates (202.5 nL/well) using an ECHO acoustic dispenser. Each compound was tested in a 10-point serial 3-fold dilution (typical final concentrations: 403 nM-0.02 nM and 40.3 nM-0.002 nM). […] To set up the assay, thaw ARF vial(s) in 37° C. water bath until small ice crystal remain and resuspend into assay media (DMEM containing 2% FBS, 100 U/ml Penicillin-Streptomycin). Count cells using default parameters on ViCell and dilute to 20,000 cells per ml in assay media. Add RSV GFP to cells at 24,000 pfu/ml (MOI=1.2). Mix by gentle inversion. 10 μl/well of 100% DMSO was dispensed to CellTiter-Glo (CTG) assay Max_E controls wells. Dispense cells at 50 μl/well using Bravo and 50 μl filtered tips into compound plates. Cover plates with MicroClime lids loaded with 7.5 ml of assay media to minimize evaporation. Incubate at 37 degrees C. and 5% CO2 for 96 hrs. Following incubation, distinct, GFP-expressing cells are counted using an Acumen imaging system with appropriate settings. A same-well CTG assay is performed by adding 10 μl/well reconstituted CellTiter-Glo reagent (Promega G7573) and reading plates on PerkinElmer Envision according to manufacturer's instructions. Raw data were loaded and analyzed in ActivityBase. Antiviral IC50 and cytotoxicity CC50 values were determined using a 4 parameter logistic fit based on the Levenberg-Marquardt algorithm. Model: 205-4 Parameter Logistic.
Calu-1 cells were purchased from ATCC (Cat #HTB-54) and are expanded in growth media (DMEM containing 10% FBS, 100 U/ml Penicillin-Streptomycin). To make ARF, remove and discard cell culture media, briefly rinse the cell layer with PBS to remove all traces of serum. Add 2.5 ml of TrypLE Express solution and incubate until cells dislodge, then add growth media and resuspend the cells by gentle pipetting. Count cells for concentration and determine viability using a ViCell. Centrifuge at RT, 300 g for 5 min to pellet cells. Gently aspirate supernatant, flick pellet to loosen cells. Resuspend cells in an appropriate volume of freezing medium (DMEM containing 10% DMSO, 10% FBS, 100 U/ml Penicillin-Streptomycin) to achieve 5×10^6/ml. Transfer 1 ml of cell suspension to freezing vials. Put vials to CoolCell cryopreservation container and place CoolCell container upright in a −80° C. freezer overnight before transferring vials to liquid nitrogen vapor for storage.

hMPV-GFP = hMPV-GFP viral replication assay; type: cell-based, human metapneumovirus; settings: read-out: hMPV EC50
Description: GFP expressing rgHMPV #3 p3 was generated in Dr. Buchholz's lab (Biacchesi S. et al., J Virol. 2007 June; 81(11): 6057-6067.) and propagated in VERO cells (kidney tissue derived from a normal, adult African green monkey. ATCC Cat #CCL-81) with infection Multiplicity of Infection (MOI) of 0.1. Virus was harvested 4 days after infection by collecting all culture material and freeze-thaw the viral culture in liquid nitrogen twice. To generating virus working stocks, thaw frozen samples in 37° C. water bath then centrifuge at 218 g for 15 min at 4° C. Add 1/10 of 10×SPG (Biological Industries 06-3061-01-5A), mix, aliquot supernatant, and quick-freeze in liquid nitrogen then transfer to −80° C. freezer for storage. Virus titer was determined by performing titration test in 96-well plates and calculate approximate virus titer using GFP event/well data.
Compound plates were prepared by dispensing compounds dissolved in DMSO into wells of 384 well coming 3985 polystyrene flat clear bottom optical imaging microplates (202.5 nL/well) using an ECHO acoustic dispenser. Each compound was tested in a 10-point serial 3-fold dilution (typical final concentrations: 40,300 nM-2 nM). […] Continuous culture of VERO cells were maintained in complete culture media (OptiMEM supplemented with 2 mM GlutaMAX™ and 100 U/ml Penicillin-Streptomycin). To set up the assay, trypsinize VERO cells with 0.25% Trypsin-EDTA until cells dislodge, then re-suspend cells with 1 mL FBS. Spin down cells at 300 g for 5 min and wash cells twice in culture media, then count cells using default parameters on ViCell. Cells were then diluted to 100,000 cells/ml (5,000 cells/50 μl) in complete culture media+TrypLE Select (80 μl/ml). Add hMPV-GFP virus to cells at 125,000 pfu/ml (MOI=1.25). Mix by gentle inversion. 10 μl/well of 100% DMSO was dispensed to CellTiter-Glo (CTG) assay Max_E controls wells. Dispense cells at 50 μl/well using Bravo and 50 μl filtered tips into compound plates. Cover plates with MicroClime lids loaded with 7.5 ml of assay media to minimize evaporation. Lightly shake plate for 10 minutes at room temperature then incubate at 37 degrees C. and 5% CO2 for 48 hrs. Following incubation, distinct, GFP-expressing cells are counted using an Acumen imaging system with appropriate settings. A same-well CTG assay is performed by adding 10 μl/well reconstituted CellTiter-Glo reagent (Promega G7573) and reading plates on PerkinElmer Envision according to manufacturer's instructions. Raw data were loaded and analyzed in ActivityBase. Antiviral IC50 and cytotoxicity CC50 values were determined using a 4 parameter logistic fit based on the Levenberg-Marquardt algorithm. Model: 205-4 Parameter Logistic.

[1] = read-out: RSV EC50, Calu-1 cells, RSV-A2-GFP MOI=1.2, 96 hrs, GFP-expressing cells counted
[2] = human metapneumovirus, Vero, 48 h
[3] = human respiratory syncytial virus, Calu-1, 96 h, read-out: RSV EC50, Calu-1 cells, RSV-A2-GFP MOI=1.2, 96 hrs, GFP-expressing cells counted

SMILES | EC50 (RSV-A2-GFP; [1]) [nM] | EC50 (hMPV-GFP; [2]) [nM] | EC50 (hMPV-GFP; VERO cells, hMPV-GFP MOI=1.25, 48 hrs, GFP-expressing cells counted) [nM] | EC50 (RSV-A2-GFP; [3]) [nM]
CCOc1cc(C(=O)NCC(C)(O)c2cc(C(C)(C)N)cc(-c3ccc(F)cc3)n2)n(C)n1 (single isomer, unassigned) [Example 01-A] | > 100 | > 100 | – | –
CCOc1cc(C(=O)NCC(C)(O)c2cc(C(C)(C)N)cc(-c3ccc(F)cc3)n2)n(C)n1 (single isomer, unassigned) [Example 01-B] | < 10 | – | > 100 | –
Cn1nc(-n2cccn2)cc1C(=O)NCC(C)(O)c1cc(C(C)(C)N)cc(-c2ccc(F)cc2)n1 (single isomer, unassigned) [Example 02-B] | – | > 100 | – | < 10
Cn1nc(-c2ccon2)cc1C(=O)NCC(C)(O)c1cc(C(C)(C)N)cc(-c2ccc(F)cc2)n1 (single isomer, unassigned) [Example 03-B] | – | > 100 | – | < 10
Cn1nc(-c2ncco2)cc1C(=O)NCC(C)(O)c1cc(C(C)(C)N)cc(-c2ccc(F)cc2)n1 (single isomer, unassigned) [Example 04-B] | – | > 100 | – | < 10
Cn1nc(-c2cscn2)cc1C(=O)NCC(C)(O)c1cc(C(C)(C)N)cc(-c2ccc(F)cc2)n1 (single isomer, unassigned) [Example 05-B] | – | > 100 | – | < 10
CCn1nc(-c2cscn2)cc1C(=O)NCC(C)(O)c1cc(C(C)(C)N)cc(-c2ccc(F)cc2)n1 (single isomer, unassigned) [Example 06-B] | – | > 100 | – | < 10
Cc1nc(-c2cscn2)sc1C(=O)NCC(C)(O)c1cc(C(C)(C)N)cc(-c2ccc(F)cc2)n1 (single isomer, unassigned) [Example 07-B] | – | > 100 | – | < 10
CC(C)(N)c1cc(-c2ccc(F)cc2)nc(C(C)(O)CNC(=O)c2sc(-c3cscn3)nc2C2CC2)c1 (single isomer, unassigned) [Example 08-B] | – | > 100 | – | < 10
CC(C)(N)c1cc(-c2ccc(F)cc2)nc(C(C)(O)CNC(=O)c2cc(-c3cscn3)ns2)c1 (single isomer, unassigned) [Example 09-B] | – | > 100 | – | < 10
CC(C)(N)c1cc(-c2ccc(F)cc2)nc(C(C)(O)CNC(=O)c2cc(-c3ncccn3)ns2)c1 (single isomer, unassigned) [Example 10-B] | – | > 100 | – | < 10
COc1nn(-c2ncccn2)cc1C(=O)NCC(C)(O)c1cc(C(C)(C)N)cc(-c2ccc(F)cc2)n1 (single isomer, unassigned) [Example 11-B] | – | > 100 | – | < 10
Cn1nc(-n2cccn2)cc1C(=O)NCC(C)(O)c1cc(C(C)(C)N)cc(-c2ccc(Cl)c(F)c2)n1 (single isomer, unassigned) [Example 39-B, N-(2-(4-(2-aminopropan-2-yl)-6-(4-chloro-3-fluorophenyl)pyridin-2-yl)-2-hydroxypropyl)-1′-methyl-1′H-[1,3′-bipyrazole]-5′-carboxamide] | – | – | – | < 10
Cn1nc(-n2cccn2)cc1C(=O)NCC(C)(O)c1cc(C(C)(C)N)cc(Cc2ccc(F)cc2)n1 (single isomer, unassigned) [Example 40-B, N-(2-(4-(2-aminopropan-2-yl)-6-(4-fluorobenzyl)pyridin-2-yl)-2-hydroxypropyl)-1′-methyl-1′H-[1,3′-bipyrazole]-5′-carboxamide] | – | – | – | < 10
Cn1nc(-n2cccn2)cc1C(=O)NCC(O)(c1cc(C(C)(C)N)cc(-c2ccc(C(F)F)cc2)n1)C(F)(F)F (single isomer, unassigned) [Example 41-A, N-(2-(4-(2-aminopropan-2-yl)-6-(4-(difluoromethyl)phenyl)pyridin-2-yl)-3,3,3-trifluoro-2-hydroxypropyl)-1′-methyl-1′H-[1,3′-bipyrazole]-5′-carboxamide] | – | – | – | < 10
Cn1nc(-n2cccn2)cc1C(=O)NCC(O)(c1cc(C(C)(C)N)cc(-c2ccc(C(F)(F)F)cc2)n1)C(F)(F)F (single isomer, unassigned) [Example 42-A, N-(2-(4-(2-aminopropan-2-yl)-6-(4-(trifluoromethyl)phenyl)pyridin-2-yl)-3,3,3-trifluoro-2-hydroxypropyl)-1′-methyl-1′H-[1,3′-bipyrazole]-5′-carboxamide] | – | – | – | < 10
Cn1nc(-n2cccn2)cc1C(=O)NCC(O)(c1cc(C(C)(C)N)cc(-c2ccc(F)c(F)c2)n1)C(F)(F)F (single isomer, unassigned) [Example 43-A, N-(2-(4-(2-aminopropan-2-yl)-6-(3,4-difluorophenyl)pyridin-2-yl)-3,3,3-trifluoro-2-hydroxypropyl)-1′-methyl-1′H-[1,3′-bipyrazole]-5′-carboxamide] | – | – | – | < 10
Cn1nc(-n2cccn2)cc1C(=O)NCC(O)(c1cc(C(C)(C)N)cc(-c2ccc(F)cc2F)n1)C(F)(F)F (single isomer, unassigned) [Example 44-A, N-(2-(4-(2-aminopropan-2-yl)-6-(2,4-difluorophenyl)pyridin-2-yl)-3,3,3-trifluoro-2-hydroxypropyl)-1′-methyl-1′H-[1,3′-bipyrazole]-5′-carboxamide] | – | – | – | < 10
Cc1cc(F)ccc1-c1cc(C(C)(C)N)cc(C(O)(CNC(=O)c2cc(-n3cccn3)nn2C)C(F)(F)F)n1 (single isomer, unassigned) [Example 45-A, N-(2-(4-(2-aminopropan-2-yl)-6-(4-fluoro-2-methylphenyl)pyridin-2-yl)-3,3,3-trifluoro-2-hydroxypropyl)-1′-methyl-1′H-[1,3′-bipyrazole]-5′-carboxamide] | – | – | – | < 10
